Test systems include HCT-116; HT-29; SK-MEL-28; SR; RXF 393; U-251; SF-295; KM12; OVCAR-5; SF-268; SNB-75; CCRF-CEM; OVCAR-4; Hs-578T; CAKI-1; 786-0; M14; NCI-H460; HCC 2998; MDA-MB-231.
Holding throughout (assay): DTP human tumour cell line panel, 48 h

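96-well plates; 48 h exposure; 5 concentrations. Endpoints by linear interpolation between flanking doses. Not reached: highest tested concentration assigned. GI50 marks 50% less growth.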 The source made the active and inactive calls. Cut-off read from the data, not from the text of the source: active = GI50 up to about 1.1 µM and inactive = higher. Some results are limits rather than exact numbers.

In the case of `O=[N+]([O-])c1cccc2c(/N=N/c3ccc4ccccc4c3O)c(O)cc(S(=O)(=O)O)c12`, the GI50 (in general, the concentration at which growth is held to half of that of the control) is 31 µM (inactive) in the assay on HCT-116; 34.1 µM (inactive) in the assay on HT-29; 44.3 µM (inactive) in the assay with SK-MEL-28; 2.82 µM (inactive) with SR; 38.4 µM (inactive) in the assay on RXF 393; 9.59 µM (inactive) with U-251. Moreover, the GI50 in the assay on SF-295 is 20.9 µM (inactive); in the assay on KM12, 55.6 µM (inactive); in the assay on OVCAR-5 it was 34.8 µM (inactive); in the assay on SF-268, 23.6 µM (inactive); in the assay on SNB-75 it was 44 µM (inactive); in the assay with CCRF-CEM, 3.05 µM (inactive). Besides, the GI50 with OVCAR-4 is 57.9 µM (inactive); in the assay with Hs-578T it was > 100 µM (inactive); in the assay on CAKI-1, 2 µM (inactive); with 786-0, 17.8 µM (inactive); with M14 it was 21.6 µM (inactive).

Regarding `CCN(CC)Cc1ccc(C(=S)Nc2ccc(C)cc2)s1`, the GI50 is 15.1 µM (inactive) in the assay with HCT-116; 4.08 µM (inactive) with HT-29; 15 µM (inactive) in the assay with SK-MEL-28; 12.1 µM (inactive) in the assay with SR; 14.7 µM (inactive) in the assay with U-251; 13.8 µM (inactive) with SF-295. In addition, the GI50 in the assay on KM12 was 15.3 µM (inactive); with NCI-H460, 15.4 µM (inactive); in the assay with OVCAR-5 it was 14.8 µM (inactive); in the assay on SF-268, 1.25 µM (inactive); in the assay on CCRF-CEM, 8.83 µM (inactive); in the assay on HCC 2998, 12.9 µM (inactive). The GI50 is 21.6 µM (inactive) with OVCAR-4; 1.84 µM (inactive) in the assay on Hs-578T; 15 µM (inactive) in the assay on CAKI-1; 15.5 µM (inactive) in the assay on 786-0; 15.1 µM (inactive) in the assay on M14.

On to `O=C1NC(=S)NC(=O)C1C(c1ccccc1[N+](=O)[O-])C1C(=O)NC(=S)NC1=O.c1ccncc1`, for which the GI50 in the assay with HCT-116, in the assay on HT-29, in the assay on SK-MEL-28, in the assay with RXF 393, with U-251 and in the assay on SF-295 was > 100 µM (inactive) each time. In addition, the GI50 with KM12, with NCI-H460, in the assay with OVCAR-5, in the assay on SF-268, with CCRF-CEM and in the assay with OVCAR-4 was > 100 µM (inactive) throughout. The GI50 in the assay on Hs-578T, in the assay on MDA-MB-231, in the assay on CAKI-1, with 786-0 and with M14 was > 100 µM (inactive) throughout.

Regarding `CN(C)C(=O)Oc1ccc(C(=S)Nc2ccccc2)cc1Br`, the GI50 in the assay on HCT-116 is 34 µM (inactive); in the assay on HT-29, 21.4 µM (inactive); in the assay on SK-MEL-28, 31.8 µM (inactive); with SR, 16.1 µM (inactive); in the assay on U-251, 83 µM (inactive); in the assay on SF-295 it was 5.11 µM (inactive). Besides, the GI50 was 21.7 µM (inactive) in the assay with KM12; 23.1 µM (inactive) in the assay on NCI-H460; 41.9 µM (inactive) in the assay on OVCAR-5; 6.9 µM (inactive) in the assay on SF-268; 21 µM (inactive) in the assay with CCRF-CEM; 33.1 µM (inactive) in the assay on HCC 2998. The GI50 in the assay on OVCAR-4 is 19.1 µM (inactive); in the assay with Hs-578T it was 8.59 µM (inactive); in the assay with CAKI-1, 63.7 µM (inactive); in the assay on 786-0, 62.8 µM (inactive); with M14, 18.6 µM (inactive).

In the case of `Nc1ccc(C23CC4CC(C2)CC(c2ccc(N)cc2)(C4)C3)cc1`, the GI50 in the assay with HCT-116 is 44.3 µM (inactive); in the assay on SK-MEL-28, 15 µM (inactive); in the assay with SR, 14.6 µM (inactive); in the assay with U-251 it was 14.3 µM (inactive); in the assay on KM12, > 100 µM (inactive); in the assay with NCI-H460, 37.2 µM (inactive). The GI50 with OVCAR-5 was 27.7 µM (inactive); in the assay with SF-268 it was 45.2 µM (inactive); with CCRF-CEM, 15.7 µM (inactive); in the assay with HCC 2998, 8.09 µM (inactive); in the assay with OVCAR-4, 10.2 µM (inactive); with MDA-MB-231, 1.96 µM (inactive). Besides, the GI50 in the assay with CAKI-1 is > 100 µM (inactive); in the assay with 786-0 it was 38.5 µM (inactive); with M14, 37.2 µM (inactive).

With `C1CN2N3CCCC23C1` (configuration not stated), the GI50 in the assay on HCT-116, in the assay with HT-29, in the assay with SK-MEL-28, in the assay on SR, in the assay with RXF 393 and in the assay with U-251 was > 100 µM (inactive) throughout. Also, the GI50 in the assay with SF-295, with KM12, with NCI-H460, in the assay on OVCAR-5, in the assay with SF-268 and in the assay with SNB-75 was > 100 µM (inactive) in each case. The GI50 with CCRF-CEM, in the assay on HCC 2998, in the assay with OVCAR-4, in the assay with CAKI-1, in the assay with 786-0 and with M14 was > 100 µM (inactive) throughout.

Regarding `Cn1c(=O)c2c(nc3n2CC(=O)N3CCCCl)n(C)c1=O`, the GI50 in the assay on HCT-116, with HT-29, in the assay with SK-MEL-28, with U-251, in the assay on SF-295 and with KM12 was > 100 µM (inactive) each time. Besides, the GI50 in the assay on NCI-H460, in the assay on OVCAR-5, with SF-268, with SNB-75, in the assay with CCRF-CEM and with HCC 2998 was > 100 µM (inactive) throughout. Moreover, the GI50 in the assay on OVCAR-4, with Hs-578T, with MDA-MB-231, in the assay on CAKI-1, with 786-0 and in the assay with M14 was > 100 µM (inactive) each time.

In the case of `O=C1[C@@H]2C[C@@H](O)CN2C(=O)c2ccccc2N1CCCO`, the GI50 in the assay with HCT-116, with HT-29, in the assay with SK-MEL-28, with U-251, with SF-295 and in the assay with KM12 was > 100 µM (inactive) in each case. In addition, the GI50 in the assay on NCI-H460, with OVCAR-5, with SF-268, in the assay on SNB-75, in the assay on Hs-578T and with MDA-MB-231 was > 100 µM (inactive) in each case. The GI50 with 786-0 and in the assay on M14 was > 100 µM (inactive) in each case.

`C=C1[C@@H](OC(C)=O)[C@H]2[C@@H](OC(C)=O)[C@@](C)(OC(C)=O)C[C@]2(OC(C)=O)C(=O)[C@@H](C)/C=C/C(C)(C)C(=O)C[C@H]1OC(C)=O`: the GI50 with HCT-116 was > 100 µM (inactive); with HT-29 it was 36.6 µM (inactive); with SK-MEL-28, > 100 µM (inactive); in the assay with RXF 393 it was > 100 µM (inactive); in the assay on U-251 it was > 100 µM (inactive); in the assay on SF-295, > 100 µM (inactive). For the same compound, the GI50 was > 100 µM (inactive) with KM12; > 100 µM (inactive) with OVCAR-5; > 100 µM (inactive) in the assay with SNB-75; 60.3 µM (inactive) in the assay with CCRF-CEM; > 100 µM (inactive) in the assay on HCC 2998; 35.2 µM (inactive) in the assay on OVCAR-4. The GI50 in the assay with MDA-MB-231, in the assay on CAKI-1, in the assay with 786-0 and with M14 was > 100 µM (inactive) each time.

In the case of `OC1c2ccccc2C(O)C2OC12` (configuration not stated), the GI50 in the assay on HCT-116, in the assay with HT-29, with SK-MEL-28, in the assay on SR, in the assay with RXF 393 and in the assay with U-251 was > 100 µM (inactive) each time. Also, the GI50 in the assay with SF-295, in the assay with KM12, with NCI-H460, with OVCAR-5, with SF-268 and with CCRF-CEM was > 100 µM (inactive) in each case. Moreover, the GI50 with OVCAR-4, with MDA-MB-231, in the assay with CAKI-1, in the assay on 786-0 and in the assay with M14 was > 100 µM (inactive) in each case.

As for `COc1cc(C2c3cc4c(cc3OC(NNC(N)=O)C2C)OCO4)cc(OC)c1OC` (configuration not stated), the concentration for 50% growth inhibition (GI50) is 0.13 µM (active) in the assay on HCT-116; 0.145 µM (active) in the assay on HT-29; 1.12 µM (inactive) with SK-MEL-28; 0.0826 µM (active) in the assay with SR; 0.525 µM (active) in the assay on RXF 393; 0.126 µM (active) with U-251. For the same compound, the GI50 with SF-295 was 0.114 µM (active); in the assay with KM12, 0.107 µM (active); with NCI-H460, 0.179 µM (active); with SF-268 it was 0.518 µM (active); in the assay with SNB-75 it was 0.18 µM (active); with CCRF-CEM, 0.109 µM (active). In addition, the concentration for 50% growth inhibition (GI50) with HCC 2998 is 0.373 µM (active); in the assay with OVCAR-4, 11.8 µM (inactive); in the assay with Hs-578T, 0.125 µM (active); with CAKI-1, 0.634 µM (active); in the assay with 786-0 it was 0.185 µM (active); in the assay with M14, 0.115 µM (active).

With `C[C@H](CCC1SC1(C)C)C1CCC2(C)C3=C(CC[C@]12C)[C@@]1(C)CC[C@H](O)C(C)(C)C1CC3` (some centres not stated), the GI50 was > 100 µM (inactive) with HCT-116; > 100 µM (inactive) in the assay with HT-29; > 100 µM (inactive) with SK-MEL-28; > 100 µM (inactive) with SR; > 100 µM (inactive) in the assay on RXF 393; > 10 µM (inactive) with U-251. Besides, the GI50 in the assay on SF-295 is > 100 µM (inactive); in the assay on KM12, > 100 µM (inactive); in the assay on NCI-H460, > 100 µM (inactive); in the assay on OVCAR-5, > 100 µM (inactive); in the assay with SF-268 it was > 100 µM (inactive); in the assay on SNB-75, 75.2 µM (inactive). For the same compound, the GI50 with CCRF-CEM, in the assay on HCC 2998, in the assay on OVCAR-4, in the assay with CAKI-1, in the assay with 786-0 and in the assay on M14 was > 100 µM (inactive) each time.
